For assay [1], the target named is T1, human serotonin transporter (Homo sapiens, UniProt P31645).
T1 construct: expressed in transfected cells; host or cells: HEK-293
Kind of assay: hSERT Receptor Binding ([125I]-RTI-55 displacement, HEK-293 membranes). How it is done: Cell pastes of HEK-293 cells transfected with a human serotonin transporter cDNA were prepared. The cell pastes were resuspended in 400 to 700 mL of Krebs-HEPES assay buffer (25 mM HEPES, 122 mM NaCl, 3 mM KCl, 1.2 mM MgSO4, 1.3 mM CaCl2, and 11 mM glucose, pH 7.4) with a Polytron homogenizer at Setting 7 for 30 seconds. Aliquots of membranes (about 2.5 mg/mL protein) were stored in liquid nitrogen until used.
Assays were set up in FlashPlates pre-coated with 0.1 % PEI in a total volume of 250 μL containing: compound of one of the Examples (10^−5M to 10^−12M), cell membanes, and 50 pM [^125l]-RTI-55 (Perkin Elmer, NEX-272; specific activity 2200 Ci/mmol). The reaction was incubated and gently agitated for 90 minutes at room temperature, and terminated by removal of assay volume. Plates were covered, and bound [^125I]-RTI-55 was determined using a Wallac Trilux Beta Plate Counter. Test compounds were run in duplicate, and specific binding was defined as the difference between binding in the presence and absence of 10 μM citalopram.
(§1) Excel and GraphPad Prism software were used for data calculation and analysis. IC50 values were converted to Ki values using the Cheng-Prusoff equation.

Assay [2] addresses T2, human norepinephrine transporter (Homo sapiens, UniProt P23975).
T2 construct: expressed in transfected cells; host or cells: HEK-293
Put plainly: hNET Receptor Binding ([125I]-RTI-55 displacement, HEK-293 membranes). The method, then:
Cell pastes of HEK-293 cells transfected with a human norepinephrine transporter cDNA were prepared. The cell pastes were resuspended in 400 to 700 mL of Krebs-HEPES assay buffer (25 mM HEPES, 122 mM NaCl, 3 mM KCl, 1.2 mM MgSO4, 1.3 mM CaCl2, and 11 mM glucose, pH 7.4) with a Polytron homogenizer at setting 7 for 30 seconds. Aliquots of membranes (5 mg/mL protein) were stored in liquid nitrogen until used.
The binding assay was set up in Beckman deep-well polypropylene plates with a total volume of 250 μL containing: compound of one of the Examples (10^−5M to 10^−12M), cell membranes, and 50 pM [^125I]-RTI-55 (Perkin Elmer, NEX-272; specific activity 2200 Ci/mmol). The reaction was incubated by gentle agitation for 90 minutes at room temperature and was terminated by filtration through Whatman GF/C filter plates using a Brandel 96-well plate harvester. Scintillation fluid (100 μL) was added to each well, and bound [^125I]-RTI-55 was determined using a Wallac Trilux Beta Plate Counter. Test compounds were run in duplicate, and specific binding was defined as the difference between binding in the presence and absence of 10 μM desipramine.
as §1

[3] abbreviates: hSERT, HEK-293 cell membranes, 50 pM [125I]-RTI-55, Ki from IC50 by Cheng-Prusoff, read-out: SERT Ki.
[4] abbreviates: hNET, HEK-293 cell membranes, 50 pM [125I]-RTI-55, Ki from IC50 by Cheng-Prusoff, read-out: NET Ki.

Where two headings read alike, the source gives them in different places. Some results are limits rather than exact numbers.

T1 sequence (P31645 whole entry): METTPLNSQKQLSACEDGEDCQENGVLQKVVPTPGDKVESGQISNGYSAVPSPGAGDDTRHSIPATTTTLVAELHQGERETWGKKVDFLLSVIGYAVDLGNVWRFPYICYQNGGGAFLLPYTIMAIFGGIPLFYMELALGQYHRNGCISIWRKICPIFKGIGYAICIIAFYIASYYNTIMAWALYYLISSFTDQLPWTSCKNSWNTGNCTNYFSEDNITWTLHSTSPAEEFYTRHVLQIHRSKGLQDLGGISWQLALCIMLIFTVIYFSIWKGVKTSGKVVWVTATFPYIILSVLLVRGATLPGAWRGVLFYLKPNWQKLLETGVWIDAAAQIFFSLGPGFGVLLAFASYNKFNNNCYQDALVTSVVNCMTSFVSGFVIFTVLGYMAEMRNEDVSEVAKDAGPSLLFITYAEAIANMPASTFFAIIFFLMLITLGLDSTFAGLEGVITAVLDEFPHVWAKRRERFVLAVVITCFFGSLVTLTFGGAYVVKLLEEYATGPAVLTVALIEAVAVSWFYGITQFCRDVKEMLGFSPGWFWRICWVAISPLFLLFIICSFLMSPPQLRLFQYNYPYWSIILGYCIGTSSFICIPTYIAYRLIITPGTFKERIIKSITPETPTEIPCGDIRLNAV
T2 sequence (P23975 whole entry): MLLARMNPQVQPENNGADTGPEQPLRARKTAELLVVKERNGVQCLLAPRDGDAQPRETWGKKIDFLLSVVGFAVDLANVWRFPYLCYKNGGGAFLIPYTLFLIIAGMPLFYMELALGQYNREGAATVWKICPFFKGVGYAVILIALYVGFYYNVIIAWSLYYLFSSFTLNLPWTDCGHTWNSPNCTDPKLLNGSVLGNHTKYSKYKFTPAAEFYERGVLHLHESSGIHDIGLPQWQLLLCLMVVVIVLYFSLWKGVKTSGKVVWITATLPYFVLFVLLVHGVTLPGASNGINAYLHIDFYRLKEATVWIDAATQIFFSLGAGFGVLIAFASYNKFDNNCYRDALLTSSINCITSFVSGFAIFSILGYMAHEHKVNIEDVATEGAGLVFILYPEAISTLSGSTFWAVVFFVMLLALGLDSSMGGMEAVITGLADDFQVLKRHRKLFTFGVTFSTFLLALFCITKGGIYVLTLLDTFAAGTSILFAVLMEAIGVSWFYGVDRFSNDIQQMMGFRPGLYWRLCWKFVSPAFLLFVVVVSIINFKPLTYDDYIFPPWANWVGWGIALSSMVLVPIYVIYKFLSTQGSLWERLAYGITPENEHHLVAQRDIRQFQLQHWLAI

The Ki is the dissociation constant of the complex between target and ligand, obtained from inhibition or displacement. For `CCOc1ncccc1OC[C@@H]1CNCC[C@@H]1c1ccc(F)cc1` (single isomer, unassigned) [Example 57, (+)-cis-2-Ethoxy-3-[4-(4-fluoro-phenyl)-piperidin-3-ylmethoxy]-pyridine], the Ki in assay [1] stood at 34.8 nM; in assay [2], 193 nM.
Take `CCOc1ccccc1OC[C@H]1CNCC[C@@H]1c1ccccc1` [Example 3, (3R,4S)-3-(2-Ethoxy-phenoxymethyl)-4-phenyl-piperidine]: the values for the Ki in assay [1] (setting [3]) and in assay [2] (setting [4]) were 18.8 nM and 1260 nM, respectively.
The like results for `FC(F)(F)c1ccc(OC[C@H]2CNCC[C@@H]2c2ccccc2)nc1` [Example 4, (3R,4S)-2-(4-Phenyl-piperidin-3-ylmethoxy)-5-trifluoromethyl-pyridine] were, in that order, 15.3 nM and 1870 nM.
The like results for `Cc1ccc(OC[C@H]2CNCC[C@@H]2c2ccccc2)nc1` [Example 5, (3R,4S)-5-Methyl-2-(4-phenyl-piperidin-3-ylmethoxy)-pyridine] were, in that order, 2.29 nM and 2620 nM.
On the same counts, the results for `COc1ncccc1OC[C@H]1CNCC[C@@H]1c1ccccc1` [Example 6, (3R,4S)-2-Methoxy-3-(4-phenyl-piperidin-3-ylmethoxy)-pyridine] are 0.52 nM and 3480 nM.
Turning to `CCCOc1ncccc1OC[C@H]1CNCC[C@@H]1c1ccccc1` [Example 8, (3R,4S)-3-(4-Phenyl-piperidin-3-ylmethoxy)-2-propoxy-pyridine], the Ki in assay [1] (setting [3]) came to 17 nM; in assay [2] (setting [4]), 1330 nM.
On the same counts, the results for `COCCOc1ncccc1OC[C@H]1CNCC[C@@H]1c1ccccc1` [Example 10, (3R,4S)-2-(2-Methoxy-ethoxy)-3-(4-phenyl-piperidin-3-ylmethoxy)-pyridine] are 18.5 nM and 6260 nM.
In the case of `Cn1nc(OC[C@H]2CNCC[C@@H]2c2ccccc2)cc1C(F)(F)F` [Example 13, (3R,4S)-3-(1-Methyl-5-trifluoromethyl-1 H-pyrazol-3-yloxymethyl)-4-phenyl-piperidine], the values for the Ki in assay [1] (setting [3]) and in assay [2] (setting [4]) were 2.69 nM and 612 nM, respectively.
Turning to `CC(C)COc1ncccc1OC[C@@H]1CNCC[C@H]1c1ccccc1` [Example 15, (3S,4R)-2-lsobutoxy-3-(4-phenyl-piperidin-3-ylmethoxy)-pyridine], the values for the Ki in assay [1] (setting [3]) and in assay [2] (setting [4]) were 20.7 nM and 4.9 nM, respectively.
On the same counts, the results for `c1ccc([C@@H]2CCNC[C@H]2COc2cccnc2OC2CCOCC2)cc1` [Example 16, (3S,4R)-3-(4-Phenyl-piperidin-3-ylmethoxy)-2-(tetrahydro-pyran-4-yloxy)-pyridine] are 680 nM and 293 nM.
On the same counts, the results for `FC(F)(F)c1ccc(OC[C@@H]2CNCC[C@H]2c2ccccc2)nc1` [Example 19, (3S,4R)-2-(4-Phenyl-piperidin-3-ylmethoxy)-5-trifluoromethyl-pyridine] are 29.1 nM and 144 nM.
`Cc1ccc(OC[C@@H]2CNCC[C@H]2c2ccccc2)nc1` [Example 20, (3S,4R)-5-Methyl-2-(4-phenyl-piperidin-3-ylmethoxy)-pyridine]: the Ki came out at 3.14 nM in assay [1] (setting [3]) and 157 nM in assay [2] (setting [4]).
On the same counts, the results for `Cn1nc(C(F)(F)F)cc1OC[C@@H]1CNCC[C@H]1c1ccccc1` [Example 21, (3S,4R)-3-(2-Methyl-5-trifluoromethyl-2H-pyrazol-3-yloxymethyl)-4-phenyl-piperidine] are 63.8 nM and 1260 nM.
The like results for `Cc1ccc(OC[C@@H]2CNCC[C@H]2c2ccccc2)cn1` [Example 22, (3S,4R)-2-Methyl-5-(4-phenyl-piperidin-3-ylmethoxy)-pyridine] were, in that order, 3.47 nM and 263 nM.
The like results for `COCc1cc(OC[C@@H]2CNCC[C@H]2c2ccccc2)[nH]n1` [Example 23, (3S,4R)-3-(5-Methoxymethyl-2H-pyrazol-3-yloxymethyl)-4-phenyl-piperidine] were, in that order, 1390 nM and 1520 nM.
As to `Cn1nc(OC[C@@H]2CNCC[C@H]2c2ccccc2)cc1C(F)(F)F` [Example 24, (3S,4R)-3-(1-Methyl-5-trifluoromethyl-1 H-pyrazol-3-yloxymethyl)-4-phenyl-piperidine], the Ki in assay [1] (setting [3]) came out at 87.7 nM; in assay [2] (setting [4]), 519 nM.
On the same counts, the results for `N#Cc1cccc(OC[C@@H]2CNCC[C@H]2c2ccccc2)c1` [Example 25, (3S,4R)-3-(4-Phenyl-piperidin-3-ylmethoxy)-benzonitrile] are 2.49 nM and 107 nM.
The like results for `N#Cc1ccc(OC[C@@H]2CNCC[C@H]2c2ccccc2)cc1` [Example 26, (3S,4R)-4-(4-Phenyl-piperidin-3-ylmethoxy)-benzonitrile] were, in that order, 21.5 nM and 73.3 nM.
The like results for `CC(C)c1cc(C(N)=O)cc(C(C)C)c1OC[C@@H]1CNCC[C@H]1c1ccccc1` [Example 27, (3S,4R)-3,5-Diisopropyl-4-(4-phenyl-piperidin-3-ylmethoxy)-benzamide] were, in that order, 5230 nM and no less than 10000 nM.
For `Cc1nccnc1OC[C@@H]1CNCC[C@H]1c1ccccc1` [Example 28, (3S,4R)-2-Methyl-3-(4-phenyl-piperidin-3-ylmethoxy)-pyrazine], the Ki in assay [1] (setting [3]) is 2130 nM; in assay [2] (setting [4]) it was 6380 nM.
The like results for `CNC(=O)c1ccc(OC[C@@H]2CNCC[C@H]2c2ccccc2)cc1` [Example 29, (3S,4R)-N-Methyl-4-(4-phenyl-piperidin-3-ylmethoxy)-benzamide] were, in that order, 967 nM and 309 nM.
On the same counts, the results for `CNC(=O)c1ccc(OC[C@@H]2CNCC[C@H]2c2ccccc2)c(OC)c1` [Example 30, (3S,4R)-3-Methoxy-N-methyl-4-(4-phenyl-piperidin-3-ylmethoxy)-benzamide] are 333 nM and 534 nM.
The like results for `COCc1ncccc1OC[C@@H]1CNCC[C@H]1c1ccccc1` [Example 31, (3S,4R)-2-Methoxymethyl-3-(4-phenyl-piperidin-3-ylmethoxy)-pyridine] were, in that order, 890 nM and 102 nM.
For the compound `CN(C)C(=O)c1ccc(OC[C@@H]2CNCC[C@H]2c2ccccc2)cc1` [Example 32, (3S,4R)-N,N-Dimethyl-4-(4-phenyl-piperidin-3-ylmethoxy)-benzamide], the results for the Ki in assay [1] (setting [3]) and in assay [2] (setting [4]) were 861 nM and 2940 nM, respectively.
With `NC(=O)c1ccc(OC[C@@H]2CNCC[C@H]2c2ccccc2)c(Cl)c1` [Example 33, (3S,4R)-3—CHloro-4-(4-phenyl-piperidin-3-ylmethoxy)-benzamide], the Ki in assay [1] (setting [3]) was 18.1 nM; in assay [2] (setting [4]), 8.6 nM.
On to `Cc1cc(C(N)=O)cc(C)c1OC[C@@H]1CNCC[C@H]1c1ccccc1` [Example 34, (3S,4R)-3,5-Dimethyl-4-(4-phenyl-piperidin-3-ylmethoxy)-benzamide], for which the Ki in assay [1] (setting [3]) was determined as 3500 nM; in assay [2] (setting [4]), 1440 nM.
On to `COc1cc(C#N)ccc1OC[C@@H]1CNCC[C@H]1c1ccccc1` [Example 36, (3S,4R) 3-Methoxy-4-(4-phenyl-piperidin-3-ylmethoxy)-benzonitrile], for which the Ki in assay [1] (setting [3]) is 13.7 nM; in assay [2] (setting [4]) it was 101 nM.
The like results for `NC(=O)c1cc(Cl)ccc1OC[C@@H]1CNCC[C@H]1c1ccccc1` [Example 37, (3S,4R)-5—CHloro-2-(4-phenyl-piperidin-3-ylmethoxy)-benzamide] were, in that order, 431 nM and 1030 nM.
On to `NC(=O)c1ncccc1OC[C@@H]1CNCC[C@H]1c1ccccc1` [Example 39, (3S,4R)-3-(4-Phenyl-piperidin-3-ylmethoxy)-pyridine-2-carboxylic acid amide], for which the Ki amounted to 732 nM in assay [1] (setting [3]) and 146 nM in assay [2] (setting [4]).
On the same counts, the results for `CS(=O)(=O)c1ccccc1OC[C@@H]1CNCC[C@H]1c1ccccc1` [Example 40, (−)-(3S,4R)-3-(2-Methanesulfonyl-phenoxymethyl)-4-phenyl-piperidine] are 5680 nM and 751 nM.
The like results for `COc1cccc(F)c1OC[C@@H]1CNCC[C@H]1c1ccccc1` [Example 41, (3S,4R)-3-(2-Fluoro-6-methoxy-phenoxymethyl)-4-phenyl-piperidine] were, in that order, 2.67 nM and 3.88 nM.

These data come from US20070142389A1, “PIPERIDINE DERIVATIVES” (PFIZER INC., priority 2005, published 2007).
